Source: PMC5399312 (Journal of Experimental & Clinical Cancer Research : CR, 2017)
Where two headings read alike, the source gives them in different places.

Tests used:
SW480 cells [1] = test: Flow cytometric analysis for apoptosis (Annexin-V/PI); type: cell-based, human; details: 48 h, control 0.7%
Procedure: Then the cells were harvested, washed twice with ice-cold PBS, and mixed in 100 μL of 1× binding buffer (10 mM HEPES/ NaOH, pH 7.4, 140 mM NaCl, 2.5 mM CaCl2). After culturing for 15 min at room temperature in Annexin-V/PI double staining liquid (Nanjing KeyGen Biotech. Inc.), the cells were examined by flow cytometry (BD Biosciences, FACSCalibur).

[2] = tested on: SW480 cells transfected with HK2 siRNA; test: HK2 siRNA knock-down, CCK-8 cytotoxicity; type: cell-based, human; details: compared with negative control siRNA cells
Source text: SW480 cells were transfected with either two siRNAs against HK2 or one nontargeting siRNA and cultured in 6-well plates according to the manufacturer’s instructions. The target sequences of oligo siRNAs were as follows: siRNA: 5'- […] -3', nontargeting siRNA (Negative control, NC): 5'- […] -3' [21].

[3] = Cytotoxicity test (CCK-8); type: cell-based
Procedure: (§1) Met was used as a positive control. All experiments were performed in triplicate.

HCT116 = test: Cytotoxicity test (CCK-8); type: cell-based; details: Homo sapiens, HCT-116; HCT116, 48 h
Procedure: as §1

SW480 = test: Cytotoxicity test (CCK-8); type: cell-based; details: Homo sapiens, SW480, 48 h
Procedure: as §1

SMMC-7721 = test: Cytotoxicity test (CCK-8); type: cell-based; details: Homo sapiens, SMMC-7721, 48 h
Procedure: as §1

Lovo = test: Cytotoxicity test (CCK-8); type: cell-based; details: Homo sapiens, 48 h
Procedure: as §1

MCF-7 = test: Cytotoxicity test (CCK-8); type: cell-based; details: Homo sapiens, MCF7; MCF-7, 48 h
Procedure: as §1

SW480 cells [4] = test: Measurement of intracellular ATP level; type: cell-based, human; details: 75, 150 and 300 μM, 48 h
Procedure: After centrifugation, supernatants were assayed by ATP assay kit (KeyGen, Nanjing, China) to determine the generation of ATP. The assay was determined using the plate reader (Synergy HT, BioTek, USA) at 636 nm.

HK2 = target: T1, HK2 (Homo sapiens, UniProt P52789); test: In vitro enzyme inhibition assay (G6P-DH coupled, NADH 340 nm); type: biochemical; details: for Vmax: Lineweaver-Burk
T1 construct: made in house; host or cells: E. coli BL21 (DE3)
T1 sequence (P52789 1-917): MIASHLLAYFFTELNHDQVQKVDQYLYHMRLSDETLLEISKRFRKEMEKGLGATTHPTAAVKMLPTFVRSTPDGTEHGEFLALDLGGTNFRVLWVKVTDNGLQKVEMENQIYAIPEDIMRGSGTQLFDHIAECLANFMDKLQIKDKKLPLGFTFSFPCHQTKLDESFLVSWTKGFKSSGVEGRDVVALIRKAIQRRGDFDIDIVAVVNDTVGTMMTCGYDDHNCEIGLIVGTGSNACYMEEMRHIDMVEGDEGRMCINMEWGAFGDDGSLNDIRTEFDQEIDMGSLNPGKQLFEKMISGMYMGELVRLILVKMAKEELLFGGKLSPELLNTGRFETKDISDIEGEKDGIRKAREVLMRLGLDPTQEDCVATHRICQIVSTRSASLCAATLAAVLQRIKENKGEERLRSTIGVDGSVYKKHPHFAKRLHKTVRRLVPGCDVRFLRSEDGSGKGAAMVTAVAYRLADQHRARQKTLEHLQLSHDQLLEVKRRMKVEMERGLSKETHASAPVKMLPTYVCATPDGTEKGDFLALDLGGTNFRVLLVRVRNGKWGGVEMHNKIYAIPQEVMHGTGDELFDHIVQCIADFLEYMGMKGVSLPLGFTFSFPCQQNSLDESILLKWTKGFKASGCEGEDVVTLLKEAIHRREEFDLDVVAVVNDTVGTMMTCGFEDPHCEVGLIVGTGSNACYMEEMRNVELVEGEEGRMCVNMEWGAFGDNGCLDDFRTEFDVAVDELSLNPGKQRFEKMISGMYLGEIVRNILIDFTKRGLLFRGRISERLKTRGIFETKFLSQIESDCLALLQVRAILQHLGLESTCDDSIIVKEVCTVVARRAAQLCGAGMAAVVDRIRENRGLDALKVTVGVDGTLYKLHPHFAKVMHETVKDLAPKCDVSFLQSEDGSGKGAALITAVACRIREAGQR

SW480 cells xenograft = details: for decrease of size and weight of tumors: 16 days, versus vehicle
Procedure: All animal experiments were performed in accordance with the Guide for the Care and Use of Laboratory Animals of Tongji Medical College, Huazhong University of Science and Technology and approved by the Ethics Committee. CB-17/ SCID mice (male, 4 weeks old) were purchased from Beijing HFK Bioscience CO., LTD (Beijing, China). SW480 cells were inoculated subcutaneously (3 × 10^6 cells) into the left flank of each mouse. […] The dose volume was 0.1 mL/10 g body weight, and the weights of mice were recorded every day. Meanwhile, the tumor volumes were measured with vernier calipers and calculated by the following formula: (A × B^2)/2, where A was length and B was width of the two-dimension tumor. After animals were sacrificed, tumor weights were measured. The inhibition ratio (%) was calculated using the following equation: I% = 100% × [Wtumor (vehicle) − Wtumor (treated)]/Wtumor (vehicle)

SW480 cells [5] = test: Glucose uptake assay; type: cell-based, human; details: 48 h; versus untreated or Met treated control
Procedure: The Glucose Assay Kit (Rsbio, Shanghai, China) was used to analyse the glucose uptake. After 48 h drug treatment, media was collected and diluted within water. The amount of glucose in the media was then detected. Glucose uptake was determined by subtracting the amount of glucose in each sample from the total amount of glucose in the media (without cells). Met was used as a standard control in this assay.

NC(CO)C(=O)NNCc1ccc(O)c(O)c1O (stereo not drawn) [Benz, Benserazide]
apoptotic death (SW480 cells [1]; 75 μM): 10.4%
apoptotic death (SW480 cells [1]; 150 μM): 22.5%
apoptotic death (SW480 cells [1]; 300 μM): 44.1%
cytotoxicity to HK2 siRNA transfected cells [2]: fewer effects
IC50 at 48 h ([3]; African green monkey, Vero normal cells): > 500 µM
IC50 at 48 h ([3]; human, LO2 normal cells): > 500 µM
IC50 (HCT116): 181 ± 11.5 µM
IC50 (SW480): 143 ± 7 µM
IC50 (SMMC-7721): 210 ± 7.9 µM
IC50 (Lovo): 151 ± 4.5 µM
IC50 (MCF-7): 186 ± 12.5 µM
intracellular ATP level (SW480 cells [4]): reduced
Vmax (HK2; Benz 5 μM): 0.037 OD/min
Vmax (HK2; Benz 10 μM): 0.029 OD/min
Vmax (HK2; Benz 20 μM): 0.018 OD/min
mechanism of inhibition (HK2; versus glucose): combined mechanism of both competitive and noncompetitive binding
decrease of size and weight of tumors (SW480 cells xenograft; 300 mg/Kg per day i.p.): 30.1%
decrease of size and weight of tumors (SW480 cells xenograft; 600 mg/Kg per day i.p.): 60.3%
toxicity in mice (SW480 cells xenograft; mouse, in vivo): no toxicity shown
body weight and histomorphology (SW480 cells xenograft; tumor-bearing mice, daily i.p. 16 days): no remarkable loss of body weight and change of histomorphology
glucose uptake (SW480 cells [5]): significantly lower
